Data published in paper PMC8652888, “Angiogenesis, Anti-Tumor, and Anti-Metastatic Activity of Novel α-Substituted Hetero-Aromatic Chalcone Hybrids as Inhibitors of Microtubule Polymerization” (Frontiers in Chemistry, 2021).
Several values for one entry are separate records, joined by “and”; a condition that tells them apart may be missing. Equal values may be shown once. Read-outs that look alike come from different tables or passages of the source.

Legend:
[1] = system: taxol-resistant MCF7 cells (MCF7/Tax); experiment: Growth inhibition of taxol-resistant cells; format: cell-based, human
U937 = experiment: Antiproliferative activity, CCK-8 assay; format: cell-based; conditions: Homo sapiens, U-937
Description: (§1) The synthesized compounds were first evaluated for their cytotoxic effect on MCF-7 (human breast adenocarcinoma), U937 (histiocytic lymphoma cancer), HepG2 (human liver cancer) cells, and MGC-803 (human gastric cancer) using the SRB and CCK-8 assay. As reference compounds CA-4 and colchicine were included.
(§2) The primary tumor cells were purchased from a professional biomedical company. First, the primary tumor cells were incubated in a cell culture incubator at 37°C and 5% CO2. After the cell fusion reached 85%–95%, subculture was performed, and the tumor cells obtained at this time were used for subsequent related experiments. The CCK-8 method was used to inhibit the proliferation of U937 tumor cells, and the SRB method was used to inhibit the proliferation of MCF7 and HepG2 tumor cells.
The cells in the logarithmic growth phase were seeded in a 96-well plate at 8,000/well, and the drug-containing medium and cell suspension were added to the well. Three wells were added with the blank medium as the blank group. The 96-well plate was incubated for 72 h in a 37°C, 5% CO2 incubator. The 10 μl of CCK-8 dye solution was added to each well, and the incubation continued for 3–4 h.

HepG2 = experiment: Antiproliferative activity, SRB assay; format: cell-based, human; conditions: Homo sapiens, HepG2
Description: as §1, §2
Cells were distributed into 96-well plates with a density of 3 × 10^3–4 × 10^3 cells per well and incubated for 24 h in a 5% CO2 incubator at 37°C, followed by treatment with study compounds at different concentrations at 37°C for 72 h. One hundred microliters of 10% (w/v) trichloroacetic acid was added to each well, fixed at 4°C for 30 min, and dried at 65°C. Then 100 μl of 0.4% SRB was added to each well and stained on a shaker for 20 min at room temperature. The excess dye solution was washed with newly prepared 1% glacial acetic acid and dried at 65°C. One hundred fifty microliters of 10 mM unbuffered Trisbase was added to each well of the plate and shaken for 5 min to dissolve the dye. The microplate reader measured the optical density (OD) at a wavelength of 560 nm.

normal liver LO2 cells = experiment: Growth inhibition of normal cells; format: cell-based, human
MCF-7 = experiment: Antiproliferative activity, SRB assay; format: cell-based, human; conditions: Homo sapiens;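 also: proliferation of MCF7 cells quantified by sulforhodamine B staining, with optical density read at 560 nm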
MGC-803 = experiment: Antiproliferative activity (SRB and CCK-8 assay); format: cell-based; conditions: Homo sapiens
Source text: as §1

[2] = 72 h, triplicate, mean ± SD, read-out: IC50 ± SD, U937
[3] = supplement raw data, read-out: IC50/U937
[4] = 72 h, triplicate, mean ± SD, read-out: IC50 ± SD, HepG2
[5] = MCF7, 72 h, 72 h, triplicate, mean ± SD, read-out: IC50 ± SD, MCF-7
[6] = MCF7, supplement raw data, read-out: IC50/MCF
[7] = supplement raw data, read-out: IC50/MGC
[8] = triplicate, mean ± SD, read-out: IC50 ± SD, MGC-803

SMILES: COc1ccc(/C=C\c2cc(OC)c(OC)c(OC)c2)cc1O [CA-4, reference compound]
- IC50 ([1]; Homo sapiens, MCF7, three single determinations, read-out: MCF-7/Taxol (raw data of table 3, IC50)): 20.2 nM
- IC50 ([1]; Homo sapiens, MCF7, triplicate, read-out: IC50 ± SD, MCF7/Tax): 21.2 ± 0.6 nM
- IC50 ([1]; three single determinations, read-out: MCF-7/Taxol (raw data of table 3, IC50)): 22.1 nM and 21.3 nM
- IC50 (U937; [2]): 0.3 ± 0.1 nM
- IC50 (U937; [3]): 0.326 ± 0.1 nM
- IC50 (HepG2; [4]): 7.1 ± 0.9 nM
- IC50 (HepG2; supplement raw data, read-out: IC50/Hepg2): 7.09 ± 0.9 nM
- IC50 (normal liver LO2 cells; Homo sapiens, L02, three single determinations, read-out: L02 (raw data of table 3, IC50)): 14.1 nM
- IC50 (normal liver LO2 cells; Homo sapiens, L02, triplicate, read-out: IC50 ± SD, LO2): 15.2 ± 0.5 nM
- IC50 (normal liver LO2 cells; three single determinations, read-out: L02 (raw data of table 3, IC50)): 16.2 nM and 15.3 nM
- IC50 (MCF-7; [5]): 11.4 ± 0.2 nM
- IC50 (MCF-7; MCF7, Table 3, triplicate, read-out: IC50 ± SD, MCF7): 11.4 ± 0.2 nM
- IC50 (MCF-7; [6]): 11.4 ± 0.2 nM
- IC50 (MCF-7; MCF7, three single determinations, read-out: MCF-7 (raw data of table 3, IC50)): 11.8 nM

SMILES: COc1cc(C(=O)/C=C/c2c(C)[nH]c3ccccc23)cc(OC)c1OC [Compound 6b, (E)-3-(2-methyl-1H-indol-3-yl)-1-(3,4,5-trimethoxyphenyl)prop-2-en-1-one]
- IC50 (U937; [2]): > 20000 nM
- IC50 (HepG2; [4]): 14110 ± 117 nM
- IC50 (MGC-803; [7]): 190 nM
- IC50 (MGC-803; [8]): 190 ± 2 nM
- melting point: 236.7 to 238.2 °C
- IC50 (MCF-7; [5]): 281 ± 22 nM
- IC50 (MCF-7; [6]): 281 nM

SMILES: COc1cc(C(=O)/C=C/c2c(-c3ccccc3)[nH]c3ccccc23)cc(OC)c1OC [Compound 6c, (E)-3-(2-phenyl-1H-indol-3-yl)-1-(3,4,5-trimethoxyphenyl)prop-2-en-1-one]
- IC50 (U937; [2]): 601 ± 267 nM
- IC50 (U937; [3]): 601 nM
- IC50 (HepG2; [4]): 1080 ± 92 nM
- IC50 (MGC-803; [8]): 104 ± 1 nM
- melting point: 60.2 to 61.7 °C
- IC50 (MCF-7; [5]): 313 ± 17 nM
- IC50 (MCF-7; [6]): 313 nM

SMILES: COc1cc(C(=O)/C=C/c2c[nH]c3cc(Br)ccc23)cc(OC)c1OC [Compound 6g, (E)-3-(6-bromo-1H-indol-3-yl)-1-(3,4,5-trimethoxyphenyl)prop-2-en-1-one]
- IC50 (U937; [2]): > 20000 nM
- IC50 (HepG2; [4]): 18100 ± 295 nM
- IC50 (MGC-803; [7]): 70.6 nM
- IC50 (MGC-803; [8]): 71 ± 2 nM
- melting point: 216.4 to 217.6 °C
- IC50 (MCF-7; [5]): 380 ± 20 nM
- IC50 (MCF-7; [6]): 380 nM

SMILES: COc1cc(C(=O)/C=C/c2cc3ccccc3o2)cc(OC)c1OC [Compound 6h, (E)-3-(benzofuran-2-yl)-1-(3,4,5-trimethoxyphenyl)prop-2-en-1-one]
- IC50 (U937; [2]): > 20000 nM
- IC50 (HepG2; [4]): > 20000 nM
- IC50 (MGC-803; [8]): 8780 ± 309 nM
- melting point: 79.5 to 80.3 °C
- IC50 (MCF-7; [5]): 14600 ± 368 nM

SMILES: COc1cc(C(=O)/C=C/c2coc3ccccc23)cc(OC)c1OC [Compound 6j, (E)-3-(benzofuran-3-yl)-1-(3,4,5-trimethoxyphenyl)prop-2-en-1-one]
- IC50 (U937; [2]): 786 ± 346 nM
- IC50 (U937; [3]): 786 nM
- IC50 (HepG2; [4]): 4820 ± 102 nM
- IC50 (MGC-803; [7]): 395 nM
- IC50 (MGC-803; [8]): 395 ± 15 nM
- melting point: 117.5 to 120.8 °C
- IC50 (MCF-7; [5]): 988 ± 6 nM
- IC50 (MCF-7; [6]): 988 nM

SMILES: COc1cc(C(=O)/C=C/c2ccc3oc4ccccc4c3c2)cc(OC)c1OC [Compound 6l, (E)-3-[dibenzo (b,d)furan-2-yl]1-(3,4,5-trimethoxyphenyl)prop-2-en-1-one]
- IC50 (U937; [2]): 2080 ± 252 nM
- IC50 (HepG2; [4]): 3270 ± 65 nM
- IC50 (MGC-803; [7]): 326 nM
- IC50 (MGC-803; [8]): 326 ± 16 nM
- melting point: 56.5 to 57.6 °C
- IC50 (MCF-7; [5]): 810 ± 68 nM
- IC50 (MCF-7; [6]): 810 nM

SMILES: COc1cc(C(=O)/C=C/c2ccc3occc3c2)cc(OC)c1OC [Compound 6m, (E)-3-(benzofuran-5-yl)-1-(3,4,5-trimethoxyphenyl)prop-2-en-1-one]
- IC50 (U937; [2]): 6170 ± 1640 nM
- IC50 (HepG2; [4]): > 20000 nM
- IC50 (MGC-803; [8]): 3180 ± 62 nM
- melting point: 110.5 to 115.3 °C
- IC50 (MCF-7; [5]): 6460 ± 103 nM

SMILES: COc1cc(C(=O)/C=C/c2ccc3c(c2)CCO3)cc(OC)c1OC [Compound 6n, (E)-3-(2,3-dihydrobenzofuran-5-yl)-1-(3,4,5-trimethoxyphenyl)prop-2-en-1-one]
- IC50 (U937; [2]): > 20000 nM
- IC50 (HepG2; [4]): > 20000 nM
- IC50 (MGC-803; [7]): 851 nM
- IC50 (MGC-803; [8]): 851 ± 63 nM
- melting point: 107.5 to 110.3 °C
- IC50 (MCF-7; [5]): 3130 ± 415 nM
